Earlier results on one compound are cited in patent publication US20250325256A1, “LIPID PATCH” (SENSACH AB, priority 2021, published 2025).

The conditions of the data set: cited from earlier work.

With `CCCCCCCC/C=C\CCCCCCCC(=O)OCC(O)CO` (stereo not shown) [GMO, Glycerol monooleate], the solubility in water entry was “around 10^−6 M”.
